Each structure is given as a SMILES string. Several values for one entry are separate records, joined by “and”; a condition that tells them apart may be missing. Equal entries are not always repeated.

The subject of this assay is normal human fibroblasts. Put plainly: Double-stranded DNA assay in the cell lysate (bisbenzimide, Picogreen) for quantity of viable cells. Format: cell-based. On the set-up: unit not given here. As for the experimental part:
The lysate was collected and analysed. The double-stranded DNA contained in the lysate was assayed by using the bisbenzimide method (Picogreen Kit, Invitrogen). On the collected lysis medium, a procollagen assay (PIPc kit, TAKARA) by ELISA is carried out for determining the amount of intracellular procollagen (Table 4.2). A DNA assay (Picogreen kit, Invitrogen) was also carried out for rationalizing all of the measurements in each well to the quantity of viable cells.

As for `O=C1O[C@H]([C@@H](O)CO)C(O)=C1O` [Ascorbic acid, ascorbic acid], the “DNA Mean” value is 497.4 and 497.3 (50 μM, Example 6 and 7); 318 (ascorbic acid 0.1 μM, Example 4); 303 (ascorbic acid 1 μM, Example 4); 220 (ascorbic acid 5 μM, Table 5.3); 212 (ascorbic acid 5 μM, Table 5.4); 281 (ascorbic acid 10 μM, Example 4). In addition, the “DNA Mean” value is, setting by setting: (ascorbic acid 10 μM, Table 5.3) 249; (ascorbic acid 10 μM, Table 5.4) 241; (ascorbic acid 25 μM, Table 5.3) 232; (ascorbic acid 25 μM, Table 5.4) 236; (ascorbic acid 50 μM, Example 4) 279; (ascorbic acid 50 μM, Table 5.3) 180. Further, the “DNA Mean” value turned out to be 236 (ascorbic acid 50 μM, Table 5.4); 291 (ascorbic acid 100 μM, Example 4); 204 (ascorbic acid 100 μM, Table 5.3); 246 (ascorbic acid 100 μM, Table 5.4).

These data come from patent US20130017537A1, “METHOD OF IN-VITRO IMMUNOASSAY” (BASF Beauty Care Solutions France S.A.S., priority 2011, published 2013).
